Measurements as given in US11510980B2, “Brartemicin analogues” (VICTORIA LINK LTD, priority 2017, dated 2022).
“Also recorded” adds a separate entry of the source.

Assays:
mMincle-Ig = target: T1, mMincle-Ig (Mus musculus, UniProt Q9R0Q8); assay: In vitro Mincle binding assay (ELISA) with mMincle-Ig fusion protein; set-up: species or system murine; conditions: plate-coated ligand 0.1 nmol/well
T1 construct: using soluble Mincle-Ig fusion-proteins; made in house
T1 sequence (Q9R0Q8 46-214 limits assumed): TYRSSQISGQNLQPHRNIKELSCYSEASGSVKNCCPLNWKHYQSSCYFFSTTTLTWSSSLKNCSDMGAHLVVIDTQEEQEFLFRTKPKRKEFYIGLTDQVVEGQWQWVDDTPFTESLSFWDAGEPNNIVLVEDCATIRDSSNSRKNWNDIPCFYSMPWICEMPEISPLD
Protocol: (§1) Preparation of ligand-coated plates: Brartemicin analogues 9a-9i, TDM (Carbosynth, Sigma Aldrich), and TDB^14 were dissolved in CHCl3:MeOH (2:1, 1 mM), diluted in isopropanol ([…]) and added to 96-well plates (20 μL/well). The solvents were evaporated and the coated plates were used immediately.
In vitro Mincle binding assay: The preparation of mMincle- and hMincle-Ig fusion proteins have been previously described. Plate-coated glycolipids 9a-i, TDB, and TDM were incubated with hMincle-Ig, mMincle-Ig, or hIgG1-Fc (Ig) [3 μg/mL in binding buffer (20 mM Tris-HCl, 150 mM NaCl, 1 mM CaCl2), 2 mM MgCl2, pH 7.0)]. Detection of bound protein was achieved via incubation with anti-hIgG-HRP followed by the addition of a colorimetric substrate and measurement of OD at 450 nm. Background was accounted for by subtracting the hIgG1-Fc OD450 values from fusion protein OD450 values
The synthesised brartemicin analogues prepared in Example 1 were first tested for their ability to bind to both human and murine Mincle in an enzyme-linked immunosorbent assay (ELISA) using soluble Mincle-Ig fusion-proteins (FIG. 1a).

mMincle+FcRγ = target: T2, mMincle+FcRγ (Mus musculus, UniProt Q9R0Q8); assay: 2B4-NFAT-GFP reporter cells expressing mMincle+FcRγ; format: cell-based, murine; conditions: ligand-coated plates 0.01, 0.1 or 1 nmol/well, 18 hours
T2 construct: expressed in transfected cells; host or cells: 2B4-NFAT-GFP reporter cells
T2 sequence (Q9R0Q8 1-214): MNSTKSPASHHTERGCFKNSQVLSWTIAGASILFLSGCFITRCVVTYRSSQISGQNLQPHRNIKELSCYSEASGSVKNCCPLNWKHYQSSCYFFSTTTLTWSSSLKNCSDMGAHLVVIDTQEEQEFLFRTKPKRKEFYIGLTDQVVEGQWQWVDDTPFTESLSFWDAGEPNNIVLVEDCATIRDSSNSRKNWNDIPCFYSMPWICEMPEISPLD
T2 sequence (P20491 19-86 partner): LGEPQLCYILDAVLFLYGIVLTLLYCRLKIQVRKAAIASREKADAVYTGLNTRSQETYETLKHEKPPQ
Protocol: as §1
2B4-NFAT-GFP reporter cells: 2B4-NFAT-GFP reporter cells expressing mMincle+FcRγ, hMincle+FcRγ, or FcRγ only have been previously described. […] The reporter cells were harvested, stained with propidium iodide, and analysed for NFAT-GFP expression using flow cytometry (FACS Calibur).
To determine whether the Mincle binding observed in Example 1 correlated with cellular activation, nuclear factor of activated T cells (NFAT)-green fluorescent protein (GFP) reporter cells expressing mMincle or hMincle coupled to FcRγ were stimulated using plates coated with TDM, TDB, brartemicin (9i), or analogues 9a-9h.
Activation of the reporter cells was measured through the production of GFP, which was monitored by flow cytometry (FIGS. 1b and 3c).
With the compounds 43a-h in hand, the ability of these analogues to bind and signal through Mincle was assessed (FIG. 5). Accordingly, NFAT-GFP reporter cells expressing mMincle+FcRγ, hMincle+FcRγ, or FcRγ-only were stimulated with the 2G-brartemicin analogues 43a-h, TDB, iPrOH, or the p-OC18H37 substituted analogue, 9f. Reporter cell activation was measured by the production of NFAT-GFP, which was analysed by flow cytometry.

C57BL/6 mice = assay: Delayed-type hypersensitivity immunisation with OVA in oil-in-water emulsion; format: in vivo; conditions: for Th1 immune response / adjuvant activity in vivo: oil-in-water emulsion
Protocol: Delayed-type hypersensitivity: Mice were sensitised by subcutaneous injection with oil-in-water emulsions (mineral oil/Tween-80/PBS, 9:1:90, v/v/v) containing OVA only (200 μg), OVA+TDB (OVA=200 μg, TDB=0.3 μmol), OVA+9a (OVA=200 μg, 9a=0.3 μmol) or no OVA. After seven days, the mice were challenged with OVA (100 μg/footpad) and after a further seven days, the mice were sacrificed and their spleens harvested. For in vitro restimulation, splenocytes were restimulated with OVA and analysed for spenocyte number (measured at 450 nm after 3 hours, Cell Count Reagent SF, Nacalai Tesque Inc.), IFN-γ production, and IL-17 production. Footpad swelling was measured using a venier caliper pre-challenge, 24 hours post-challenge, and 48 hours post-challenge. Sera were collected from each mouse on days 0, 7, and 14 and analysed for OVA-specific antibody titers by ELISA using HRP coupled goat anti-mouse IgG (GE Health-care), IgG1, IgG2b, IgG2c, and IgG3 (SouthernBiotec). EC50 were defined by plotting the absorbance at 450 nm against log of serum concentration. Antibody titration curves were plotted using GraphPad Prism7 (GraphPad Software).
Compound 9a was then evaluated in vivo to confirm its capacity to induce a Th1 antigen-specific response using a delayed-type hypersensitivity immunisation protocol. To this end, four groups of C57BL/6 mice were immunised by subcutaneous injection with oil-in-water emulsions containing either OVA only, OVA+C18dMeBrar (9a), OVA+TDB, or no OVA. After seven days the mice were challenged with OVA (100 μg per footpad) and after a further seven days, the splenocytes were isolated and restimulated with OVA at three concentrations (10, 30, or 100 μg/mL). The immune response was measured by determining footpad swelling, production of IFN-γ and IL-17 (FIG. 7b), T cell proliferation (FIG. 4a), and antibody titres (FIG. 4c). […] Accordingly, the ability of C18dMeBrar (9a) to lead to an enhanced Th1 immune response was even more striking. This overall immune profile was also reflected in the antibody production by immunised mice. […] A high IgG2c:IgG1 ratio is commonly associated with Th1 responses and a lower ratio is associated with Th2 responses. The production of IgG2c in mice immunised with C18dMeBrar increased three-fold as compared to OVA alone, providing evidence that C18dMeBrar induces a Th1-biased immune response.

[1] = s.c. OVA 200 μg + adjuvant 0.3 μmol

## 6,6′-Di-O-(2-hydroxy-4-octabenzyloxybenzoyl)-α,α′-D-trehalose [9a]
mMincle-Ig
  binding to mMincle-Ig (ELISA, OD at 450 nm): good binding
mMincle+FcRγ
  activation of mMincle NFAT-GFP reporter cells (GFP by flow cytometry): strongly activated
C57BL/6 mice; all concentrations of OVA re-stimulation
  cell count compared to TDB: significant increase in cell count
C57BL/6 mice; [1]
  number of splenocytes as compared to OVA alone: significantly larger number of splenocytes
  Th1 immune response / adjuvant activity in vivo: potent adjuvant activity in vivo; also recorded: strong Th1 recall response; also recorded: polarised immune response with a distinct Th1 profile
C57BL/6 mice; s.c. OVA 200 μg + adjuvant 0.3 μmol, listed as C18dMeBrar
  Th1 immune response / adjuvant activity in vivo: stronger Th1 immune response
C57BL/6 mice; s.c. OVA 200 μg + adjuvant 0.3 μmol, OVA challenge 100 μg/footpad
  footpad swelling: neither 9a nor TDB induced any
C57BL/6 mice; s.c. OVA 200 μg + adjuvant 0.3 μmol, restimulation 10, 30 or 100 μg/mL OVA
  IL-17 production by splenocytes restimulated with OVA: neither 9a nor TDB induced any
C57BL/6 mice; s.c. OVA 200 μg + adjuvant 0.3 μmol, splenocytes restimulated with 100 μg/mL OVA
  antigen specific IFN-γ production, re-stimulating with 100 μg/mL of antigen: significantly enhanced cytokine production
C57BL/6 mice; s.c. OVA 200 μg + adjuvant 0.3 μmol, splenocytes restimulated with 10, 30 or 100 μg/mL OVA
  antigen specific IFN-γ production, all concentrations of OVA: trend towards increased
C57BL/6 mice; serum, ELISA
  IgG1 antibody production: showed increases
  IgG2b antibody production: showed increases
  IgG2c antibody production: showed increases
  production of IgG2c as compared to OVA alone: three-fold
  production of OVA-specific IgG antibodies: elevated the production of IgG antibodies
C57BL/6 mice; serum, ELISA, listed as C18dMeBrar
  production of OVA-specific IgG antibodies: only significant for C18dMeBrar
